According to US6444648B1, “Leishmaniasis remedy containing glucopyranose derivative as the active ingredient” (University of the Ryukyu, priority 1997, dated 2002):

System: L. amazonesis
Test: Effects upon leishmaniasis-infected mice (shrinkage of skin foci)
Type: in vivo, BALB/c mice
Details: 30 mg/kg twice a week for 8 weeks; for Average focus shrinkage degree: before administration = 100
Text: L. amazonesis was inoculated to tail root portions of BALB/c mice to prepare L. amazonesis-infected mice, and the mice were used 6 week after the infection. These mice were divided into four groups as mentioned below, infected foci (tail root portions) were photographed with lapse of time, and the effects upon them were examined in terms of [by means of] shrinkage degrees of the skin foci. The shrinkage degree of the skin focus was found by measuring a major axis of ulcer or node. The magnitude before administration was taken as 100 and the magnitude 8 weeks after administration was calculated according to the following calculation formula. Group A (Control group) Only a solvent (55% ethanol-4.5% glucose liquid) was injected topically into a focus twice a week for 8 weeks. Group B (Control group) Only a solvent (55% ethanol-4.5% glucose liquid) was injected intraperitoneally twice a week for 8 weeks. Group C (Topically injected group) A solution in which the sodium salt of the compound in the present invention represented by the formula (1) was dissolved in the solvent was injected topically into a focus twice a week for 8weeks at a rate of 30 mg/kg. Group D (intraperitoneally injected group) A solution in which the sodium salt of the compound in the present invention represented by the formula (1) was dissolved in the solvent was injected intraperitoneally twice a week for 8 weeks at a rate of 30 mg/kg. [formula]

Compound: 2-deoxy-2-[(3S)-(9-phenylnonanoyloxy)tetradecanoyl]amino-3-O-(9-phenylnonanoyl)-4-O-sulfo-α-D-glucopyranose
- Average focus shrinkage degree (Group C: injected topically into focus, magnitude (major axis of ulcer or node) 8 weeks after administration, n = 7, solvent control Group A 220.5): 138.9 (n = 7)
- Skin focus completely cured (number of mice) (Group C: topical injection, n = 7): completely cured with respect to three mice
- Average focus shrinkage degree (Group D: injected intraperitoneally, magnitude 8 weeks after administration, n = 6, solvent control Group B 289.3): 178.5 (n = 6)

Compound: CCCCCCCCCCC[C@@H](CC(=O)N[C@@H]1[C@@H](OC(=O)CCCCCCCCc2ccccc2)[C@H](OS(=O)(=O)[O-])[C@@H](CO)O[C@@H]1O)OC(=O)CCCCCCCCc1ccccc1.[Na+] [the compound in the present invention, 2-deoxy-2-[(3S)-(9-phenylnonanoyloxy)tetradecanoyl]-amino-3-O-(9-phenylnonanoyl)-4-O-sulfo-α-D-glucopyranose]
- Effect on focal infection of leishmaniasis-infected mice (in words) (conclusion from Table 1, topical or intraperitoneal): effectively shrunk the focal infection
